One assay deals with pFET3-397. The experiment in a line: pFET3-397 lacZ reporter in yeast with AMPK activator in the growth medium. In kind it is cell-based, Saccharomyces cerevisiae. The following applies: 500 μM in the growth medium. The procedure:
Most experiments were performed in a defined EDTA-containing medium known as low iron medium (LIM) (Eide et al., 1992). Iron-deficiency and repletion were generated by adding either 1 μM or 1 mM of FeCl3, respectively, to LIM. 2% galactose was used to fully induce GAL1-driven gene overexpression. Total sugar concentration was maintained at 2% by the addition of raffinose in those experiments in which the % galactose was modulated to decrease expression levels. Cells were allowed to grow to mid-log phase in LIM and β-galactosidase assays on permeabilized yeast were performed as previously described (Lyons et al., 2000). Ferroxidase activity assays on intact yeast cells followed published procedures using ferrozine as a colorimetric indicator of iron oxidation state (De Silva et al., 1995). All experiments include triplicate data points and each experiment was performed a minimum of three times. Representative experiments are shown. All error bars represent ±1 standard deviation within a single experiment. Because of the simplicity of β-galactosidase assays and the fact that Izh2p overexpression similarly affects both lacZ and ferroxidase activity, lacZ assays are shown for most experiments. For some strains with significant growth defects, such as snf1Δ, lacZ assays were not performed because of the low efficiency of co-transformation of lacZ reporter and overexpression plasmids. […]

The target of another assay is T1, Ste2p GPCR (Saccharomyces cerevisiae, UniProt D6VTK4).
T1 construct: expressed in transfected cells; host or cells: Saccharomyces cerevisiae wild type (mat a), pRS316-based GAL1-STE2 plasmid
T1 sequence (D6VTK4 1-431): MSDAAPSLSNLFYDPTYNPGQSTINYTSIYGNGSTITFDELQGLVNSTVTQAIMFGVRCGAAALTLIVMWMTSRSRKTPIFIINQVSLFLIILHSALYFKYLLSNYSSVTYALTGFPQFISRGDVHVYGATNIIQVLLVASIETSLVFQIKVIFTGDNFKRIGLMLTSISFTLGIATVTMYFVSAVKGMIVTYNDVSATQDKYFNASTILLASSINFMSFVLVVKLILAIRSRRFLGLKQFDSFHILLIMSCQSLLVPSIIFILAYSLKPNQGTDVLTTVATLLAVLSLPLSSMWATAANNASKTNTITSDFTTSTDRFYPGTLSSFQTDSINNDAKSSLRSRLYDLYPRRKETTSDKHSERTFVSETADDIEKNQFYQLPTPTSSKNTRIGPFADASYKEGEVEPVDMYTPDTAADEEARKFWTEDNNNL
The experiment in a line: FET3-lacZ reporter in yeast overexpressing Ste2p GPCR. In kind it is cell-based. The following applies: 1 μM; overexpressed Ste2p, wild type cells (mat a), 2% galactose. The source says:
(§1) Plasmids and primers. Human PAQRs were cloned into various vectors by PCR from commercially/publically available cDNAs. PAQRs were cloned into the pYES260 (Melcher, 2000), pRS316 (Liu et al., 1992) or pGREG536 (Jansen et al., 2005) expression vectors using gap repair. The pJK90 plasmid containing a Dual Topology Reporter (DTR)-tagged OST4 gene driven by the constitutive TPI1 promoter was kindly provided by Dr. Gunnar von Heijne (Stockholm University) (Kim et al., 2003). The OST4 open reading frame in pJK90 was replaced with the PAQR6 and mPRα open reading frames by gap repair. Primers for all cloning reactions are listed herein. Proteins expressed in pYES260 have an N-terminal 6×-histidine tag followed by a TEV protease cleavage site. Proteins expressed in pGREG536 have an N-terminal 7×-HA tag. Proteins expressed in the pRS316 vector are untagged. The pYES260, pRS316 and pGREG536 vectors allow for galactose-inducible expression via the GAL1 promoter. […] The FET3-lacZ plasmid was previously described (Kupchak et al., 2007). […]
(§2) Assays and growth conditions. […] Cells were allowed to grow to mid-log phase at which time the activity of the FET3 gene was monitored using a FET3-lacZ promoter-reporter construct. lacZ activities are presented as a percentage of activity seen in untreated cells expressing the appropriate empty expression vector control. […]

The next assay has as its target T2, mPRγ (Homo sapiens, UniProt Q9NXK6).
T2 construct: Full length and truncated mPRγ and mPRα were expressed in wild type cells grown in 2% galactose from the pGREG536 vector; expressed in transfected cells; host or cells: Saccharomyces cerevisiae (BY4742 wild type; also gpa mutants), GAL1-driven plasmids
T2 sequence (Q9NXK6 1-330): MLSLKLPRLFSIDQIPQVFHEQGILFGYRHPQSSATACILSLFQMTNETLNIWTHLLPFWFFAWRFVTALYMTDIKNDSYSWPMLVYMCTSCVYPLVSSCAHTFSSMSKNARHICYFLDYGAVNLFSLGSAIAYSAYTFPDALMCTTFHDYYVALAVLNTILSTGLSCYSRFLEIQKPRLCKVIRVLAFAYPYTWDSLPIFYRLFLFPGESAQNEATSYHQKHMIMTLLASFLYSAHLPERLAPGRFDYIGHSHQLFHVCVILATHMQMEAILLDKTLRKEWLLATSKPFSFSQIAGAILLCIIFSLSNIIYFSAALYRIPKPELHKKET
The experiment in a line: FET3-lacZ reporter repression in yeast expressing mPRγ. In kind it is cell-based. The source says:
(§3) Plasmids and primers. Human PAQRs were cloned into various vectors by PCR from commercially/publically available cDNAs. PAQRs were cloned into the pYES260 (Melcher, 2000), pRS316 (Liu et al., 1992) or pGREG536 (Jansen et al., 2005) expression vectors using gap repair. The pJK90 plasmid containing a Dual Topology Reporter (DTR)-tagged OST4 gene driven by the constitutive TPI1 promoter was kindly provided by Dr. Gunnar von Heijne (Stockholm University) (Kim et al., 2003). The OST4 open reading frame in pJK90 was replaced with the PAQR6 and mPRα open reading frames by gap repair. Primers for all cloning reactions are listed herein. Proteins expressed in pYES260 have an N-terminal 6×-histidine tag followed by a TEV protease cleavage site. Proteins expressed in pGREG536 have an N-terminal 7×-HA tag. Proteins expressed in the pRS316 vector are untagged. The pYES260, pRS316 and pGREG536 vectors allow for galactose-inducible expression via the GAL1 promoter. […] The FET3-lacZ plasmid was previously described (Kupchak et al., 2007). Plasmids derived from pADM4 carrying hyperactive alleles of Gpa1p (Gpa1p^Q323L) (Slessareva et al., 2006) and Gpa2p (Gpa2p^Q300L) (Harashima et al., 2002) driven by the ADH1 promoter were kindly provided by Dr. Henrik Dohlman (UNC Chapel Hill). A pRS316-based plasmid containing the STE2 gene under the control of the GAL1 promoter (Feng et al., 2000) was kindly provided by Dr. Nicholas G. Davis (Wayne State University).
Assays and growth conditions. Strains were maintained using standard protocol and grown in synthetic defined (SD) media with the appropriate amino acids to match the auxotrophies of the individual strains. Low Iron Medium (LIM) contains EDTA to limit iron-bioavailability and its composition has been previously described (Kupchak et al., 2007). […] In brief, overnights of cells grown in SD-glucose media were re-inoculated into iron-deficient LIM to induce the expression of FET3. 2% galactose was used as a carbon source to induce full expression of PAQR genes driven by the GAL1 promoter, while 0.05% galactose/1.95% raffinose was used for reduced PAQR expression. All ligands were added to the growth medium upon re-inoculation into LIM. For experiments in which steroids were added as ligands, steroids were added from ethanol stocks and “untreated” controls are actually treated with an equal volume of ethanol to control for vehicle effects. Cells were allowed to grow to mid-log phase at which time the activity of the FET3 gene was monitored using a FET3-lacZ promoter-reporter construct. lacZ activities are presented as a percentage of activity seen in untreated cells expressing the appropriate empty expression vector control. For individual experiments, each data point has been done in triplicate and the error bars represent +/−1 standard deviation. All experiments were performed at least three times and a representative experiment is shown. EC50 values were obtained using the web-based BioDataFit software using sigmoidal curve-fitting. (web site changbioscience.com/stat/ec50.html)

In a further assay the target is T3, mPRα (Homo sapiens, UniProt Q86WK9).
T3 construct: Full length and truncated mPRγ and mPRα were expressed in wild type cells grown in 2% galactose from the pGREG536 vector; expressed in transfected cells; host or cells: Saccharomyces cerevisiae (BY4742 wild type; also gpa mutants), GAL1-driven plasmids (TPI1 promoter in pJK90)
T3 sequence (Q86WK9 1-346): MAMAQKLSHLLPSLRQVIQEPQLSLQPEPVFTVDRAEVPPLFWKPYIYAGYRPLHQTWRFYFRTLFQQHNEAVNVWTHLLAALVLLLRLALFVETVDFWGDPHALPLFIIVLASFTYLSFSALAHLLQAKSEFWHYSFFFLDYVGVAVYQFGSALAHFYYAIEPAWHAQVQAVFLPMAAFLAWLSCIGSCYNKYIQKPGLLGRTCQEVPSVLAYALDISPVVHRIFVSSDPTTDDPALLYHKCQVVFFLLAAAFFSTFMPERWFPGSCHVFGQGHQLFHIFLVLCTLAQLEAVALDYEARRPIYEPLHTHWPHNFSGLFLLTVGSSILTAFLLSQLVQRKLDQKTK
The experiment in a line: cell-based. The source says:
Plasmids and primers. Human PAQRs were cloned into various vectors by PCR from commercially/publically available cDNAs. […] The OST4 open reading frame in pJK90 was replaced with the PAQR6 and mPRα open reading frames by gap repair. Primers for all cloning reactions are listed herein. Proteins expressed in pYES260 have an N-terminal 6×-histidine tag followed by a TEV protease cleavage site. Proteins expressed in pGREG536 have an N-terminal 7×-HA tag. Proteins expressed in the pRS316 vector are untagged. The pYES260, pRS316 and pGREG536 vectors allow for galactose-inducible expression via the GAL1 promoter. […] A pRS316-based plasmid containing the STE2 gene under the control of the GAL1 promoter (Feng et al., 2000) was kindly provided by Dr. Nicholas G. Davis (Wayne State University).
Assays and growth conditions. Strains were maintained using standard protocol and grown in synthetic defined (SD) media with the appropriate amino acids to match the auxotrophies of the individual strains. […] In brief, overnights of cells grown in SD-glucose media were re-inoculated into iron-deficient LIM to induce the expression of FET3. […] All ligands were added to the growth medium upon re-inoculation into LIM. For experiments in which steroids were added as ligands, steroids were added from ethanol stocks and “untreated” controls are actually treated with an equal volume of ethanol to control for vehicle effects. […] All experiments were performed at least three times and a representative experiment is shown. EC50 values were obtained using the web-based BioDataFit software using sigmoidal curve-fitting. (web site changbioscience.com/stat/ec50.html)

The next assay deals with T4, PAQR6 (Homo sapiens, UniProt Q6TCH4).
T4 construct: expressed in transfected cells; host or cells: Saccharomyces cerevisiae BY4742, GAL1-driven pYES260 plasmid
T4 sequence (Q6TCH4 1-344): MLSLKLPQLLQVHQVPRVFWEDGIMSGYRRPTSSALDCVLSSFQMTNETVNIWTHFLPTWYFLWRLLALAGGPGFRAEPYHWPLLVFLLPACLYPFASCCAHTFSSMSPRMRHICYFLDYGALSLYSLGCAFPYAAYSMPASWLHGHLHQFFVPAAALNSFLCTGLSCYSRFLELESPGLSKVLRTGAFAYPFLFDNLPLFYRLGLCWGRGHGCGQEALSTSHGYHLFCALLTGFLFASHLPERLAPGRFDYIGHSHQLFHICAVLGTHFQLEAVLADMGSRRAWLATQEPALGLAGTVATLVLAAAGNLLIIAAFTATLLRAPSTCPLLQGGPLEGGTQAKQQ
The experiment in a line: FET3-lacZ reporter repression in yeast expressing PAQR6. It counts as cell-based. The conditions noted are these: FET3-lacZ.
From the text: as §1, §2

Another assay has as its target T5, PAQR9 (Homo sapiens, UniProt Q6ZVX9).
T5 construct: expressed in transfected cells; host or cells: Saccharomyces cerevisiae BY4742, GAL1-driven pYES260 plasmid
T5 sequence (Q6ZVX9 1-377): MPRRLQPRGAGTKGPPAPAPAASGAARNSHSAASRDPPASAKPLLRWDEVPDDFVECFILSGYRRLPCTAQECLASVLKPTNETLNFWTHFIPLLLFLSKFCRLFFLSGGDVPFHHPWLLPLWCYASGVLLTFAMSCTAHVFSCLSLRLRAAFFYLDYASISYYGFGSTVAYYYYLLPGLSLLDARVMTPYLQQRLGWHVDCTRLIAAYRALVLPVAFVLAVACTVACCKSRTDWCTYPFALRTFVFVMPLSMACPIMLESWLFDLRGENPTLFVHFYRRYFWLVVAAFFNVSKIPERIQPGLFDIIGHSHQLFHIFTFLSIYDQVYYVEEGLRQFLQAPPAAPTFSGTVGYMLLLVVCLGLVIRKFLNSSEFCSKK
The experiment in a line: FET3-lacZ reporter repression in yeast expressing PAQR9. The following applies: FET3-lacZ. In kind it is cell-based.
From the text: as §3
Assays and growth conditions. Strains were maintained using standard protocol and grown in synthetic defined (SD) media with the appropriate amino acids to match the auxotrophies of the individual strains. Low Iron Medium (LIM) contains EDTA to limit iron-bioavailability and its composition has been previously described (Kupchak et al., 2007). […] Cells were allowed to grow to mid-log phase at which time the activity of the FET3 gene was monitored using a FET3-lacZ promoter-reporter construct. lacZ activities are presented as a percentage of activity seen in untreated cells expressing the appropriate empty expression vector control. […]

Setting [1] is: FET3-lacZ, steroids up to 10 μM.

pEC50: −log10 of the molar value. Read-outs that look alike come from different tables or passages of the source.

In the case of `NC(=O)c1ncn([C@@H]2O[C@H](CO)[C@@H](O)[C@H]2O)c1N` [AICAR], the “effect on pFET3-397 activity” value in the assay with pFET3-397 is on record as “small but reproducible decrease”.
Take α-factor: at Ste2p GPCR, the “effect on FET3” value is given as “no effect”.
`CC(=O)[C@@]1(O)CC[C@H]2[C@@H]3CCC4=CC(=O)CC[C@]4(C)[C@H]3CC[C@@]21C` [17α-hydroxyprogesterone]: the “agonist activity on mPRγ (in words)” value at mPRγ (setting [1]) is “effective activator”. The pEC50 (commonly the negative decadic logarithm of the EC50, by convention in mol/L) at mPRγ (mPRγ column of Table 4, ligand alone) is 8.03; at mPRα (mPRα column of Table 4, ligand alone, read-out: EC50), 7.99; on mPRα (read-out: EC50 for the activation of mPRα), about 8.00. Also, the “agonist activity on mPRα (in words)” value on mPRα (setting [1]) is “effective activator”. The “activation of mPRα, alterations at the 17 and 21 positions of the pregnane ring (in words)” value at mPRα (further analysis of mPRα (pRS316 plasmid, 2% galactose per FIG. 7C)) is reported as “similarly effective activators”. Besides, on PAQR6, the “activation of PAQR6 (in words)” value is on record as “can be activated”. In addition, at PAQR9, the “activation of PAQR9 (in words)” value is recorded as “can be activated”.

These data come from patent US8809001B2, “High throughput assays for inhibitors and activators of PAQR receptors” (University of Florida Research Foundation, Inc., priority 2007, dated 2014).
